From patent publication US6552060B1, “Asymmetric disulfides and methods of using same” (Prolx Pharmaceuticals, Inc., priority 1997, dated 2003)

The compounds below were run against T1, TR/Trx (Homo sapiens, UniProt Q16881) (assay: Thioredoxin dependent reduction of insulin by human thioredoxin reductase and NADPH (IC50 TR/Trx, 96 well)). Details: Table 3; read-out: IC50 TR/Trx (converted).
T1 sequence (Q16881 1-499 isoform Q16881-5): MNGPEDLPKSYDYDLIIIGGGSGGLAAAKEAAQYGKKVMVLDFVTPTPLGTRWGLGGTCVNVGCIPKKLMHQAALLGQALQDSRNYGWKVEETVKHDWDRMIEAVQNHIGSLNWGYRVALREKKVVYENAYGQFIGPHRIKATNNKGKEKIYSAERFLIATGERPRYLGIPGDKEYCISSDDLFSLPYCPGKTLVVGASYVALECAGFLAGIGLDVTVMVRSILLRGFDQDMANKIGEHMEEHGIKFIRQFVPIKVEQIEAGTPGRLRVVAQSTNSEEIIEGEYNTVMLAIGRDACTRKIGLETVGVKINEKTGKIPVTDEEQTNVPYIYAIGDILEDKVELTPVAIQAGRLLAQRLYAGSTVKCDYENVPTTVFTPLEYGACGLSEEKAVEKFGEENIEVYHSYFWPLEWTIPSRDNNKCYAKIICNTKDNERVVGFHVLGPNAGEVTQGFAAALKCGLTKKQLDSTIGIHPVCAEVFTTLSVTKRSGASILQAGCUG
Format: biochemical
Description: When referring to the particular system being analyzed IC50 is typically followed by an abbreviation referring to that system (i.e., IC50 TR/Trx for the above described thioredoxin redox system which is comprised of thioredoxin reductase and thioredoxin).
A second plate was used for the assessment of biological activity or as a biological screen. Aliquots of disulfides dissolved in DMSO, were be transferred into 96 well plates. The assay to assess their ability to inhibit thioredoxin reductase measures the thioredoxin dependent reduction of insulin by human thioredoxin reductase and NADPH. The effects of the disulfides on the reduction of Trx by TR were measured spectrophotometrically by following the reduction of NADPH at 339 nm with insulin as the final electron acceptor in a buffered mixture of TR, Trx, NADPH and insulin.

| IC50 [µM] | Compound |
| --- | --- |
| 57.5 | CC(C)CSSc1ncccc1C(=O)O [Compound G-23] |

Same assay, conditions: Table 4

| Disulfide inhibition of TR/Trx (IC50 TR/Trx) [µg/mL] | Compound |
| --- | --- |
| 75 | CCSSc1nnc(C)s1 [Compound A-3] |
| 35 | CCSSc1nnc(S)s1 [Compound A-4] |
| 35 | CCSSc1ncccc1C(=O)O [Compound A-23] |
| 90 | CCSSc1nccc(C)n1 [Compound A-24] |
| 75 | CCCSSc1nccn1C [Compound B-2] |
| 85 | CCCSSc1nnc(C)s1 [Compound B-3] |
| 35 | CCCSSc1nnc(S)s1 [Compound B-4] |
| 9 | CCCCSSc1nnc(C)s1 [Compound C-3] |
| 56 | CCCCSSc1nnc(S)s1 [Compound C-4] |
| 33 | CCCCSSc1nc(N)nc2[nH]cnc12 [Compound C-6] |
| 33 | CCCCSSc1ncnc2[nH]cnc12 [Compound C-7] |
| 57 | CCCCSSc1nc2ccccc2[nH]1 [Compound C-8] |
| 12 | CCCCSSc1nc2cc(C)ccc2[nH]1 [Compound C-9] |
| >76 | CCCCSSc1nc2cc([N+](=O)[O-])ccc2[nH]1 [Compound C-10] |
| 42 | CCCCSSc1nc2ccccc2o1 [Compound C-12] |
| >189 | CCCCSSCc1ccccc1 [Compound C-19] |
| 61 | CCCCSSCc1cccc(OC)c1 [Compound C-20] |
| 179 | CCCCSSCc1ccc(OC)cc1 [Compound C-21] |
| 194 | CCCCSSC(C)c1ccccc1 (centres unmarked) [Compound C-22] |
| 65 | CCCCSSc1ncccc1C(=O)O [Compound C-23] |

| Disulfide inhibition of TR/Trx (IC50 TR/Trx) [µg/mL] | Compound |
| --- | --- |
| 48 | CCCCSSc1nccc(C)n1 [Compound C-24] |
| 51 | CCCCSSC1CCCC1 [Compound C-27] |
| 35 | CC(C)SSc1nnc(S)s1 [Compound E-4] |
| 60 | CCC(C)SSCc1ccc(OC)cc1 (centres unmarked) [Compound F-21] |
| 125 | CC(C)CSSc1nccn1C [Compound G-2] |
| 29 | Cc1nnc(SSCC(C)C)s1 [Compound G-3] |
| 18 | CC(C)CSSc1nc2ccccc2[nH]1 [Compound G-8] |
| 11 | Cc1ccc2[nH]c(SSCC(C)C)nc2c1 [Compound G-9] |
| 52 | CC(C)CSSc1nc2ccccc2o1 [Compound G-12] |
| >189 | CC(C)CSSCc1ccccc1 [Compound G-19] |
| >203 | COc1ccc(CSSCC(C)C)cc1 [Compound G-21] |
| 201 | CC(C)CSSC(C)c1ccccc1 (centres unmarked) [Compound G-22] |
| 65 | Cc1ccnc(SSCC(C)C)n1 [Compound G-24] |
| 100 | Cn1ccnc1SSCc1ccccc1 [Compound I-2] |
| 9 | Cc1nnc(SSCc2ccccc2)s1 [Compound I-3] |
| 5 | Sc1nnc(SSCc2ccccc2)s1 [Compound I-4] |
| 35 | O=C(O)c1cccnc1SSCc1ccccc1 [Compound I-23] |
| 35 | Cc1ccnc(SSCc2ccccc2)n1 [Compound I-24] |
| 12 | CC(SSc1nccn1C)c1ccccc1 (centres unmarked) [Compound J-2] |
| 11 | Cc1nnc(SSC(C)c2ccccc2)s1 (centres unmarked) [Compound J-3] |
